Literature values in the CATMoS acute toxicity set (Mansouri et al. 2021).
“And” between values parts separate entries of the source, which are not always exact repeats. Identical values can stand only once. Where a SMILES comes first, the peptide text is derived from it. Bridges are numbered along the chain shown (N, C = ends). [ ]: non-standard residue; d: D form. The star is where a group is joined. X1 = CC[C@H](C)CCCCC(=O)*; Dab = NCC[C@H](N)C(=O)O

Assay: rat acute oral toxicity
Details: in vivo

| SMILES | LD50 |
| --- | --- |
| CC(C)CCOC(=O)c1ccccc1O | 3300 mg/kg |
| N#CCN(CC#N)N=O | 163 mg/kg |
| Nc1cc(-c2ccncc2)c[nH]c1=O | 102 mg/kg |
| Cc1c(Cl)c([N+](=O)[O-])c2nc(C(F)(F)F)[nH]c2c1[N+](=O)[O-] | 105 mg/kg |
| O=S(=O)(O)c1cc(Cl)ccc1C=Cc1ccc(-n2nc3ccc4c(S(=O)(=O)O)cccc4c3n2)cc1S(=O)(=O)O | 19900 mg/kg |
| CS(=O)(=O)c1nnc(C(F)(F)F)s1 | 312 mg/kg |
| C=C1C[C@@H]1C[C@H](N)C(=O)O | 98 mg/kg |
| NC(CO)C(=O)NNCc1ccc(O)c(O)c1O (stereo not given) | 5300 mg/kg |
| CN(C)N=Nc1ccc([N+](=O)[O-])cc1 | 1660 mg/kg |
| CCOP(=O)(OCC)SCC(=O)NC(C)(C)C#N | 3.5 mg/kg |
| C=COC(=O)CCCCC(=O)OC | 6200 mg/kg |
| CCOP(=O)(OCC)SCC(C)(SCC)SCC | 15 mg/kg |
| CC[C@H](C)CCCCC(=O)N[C@@H](CCN)C(=O)N[C@H](C(=O)N[C@@H](CCN)C(=O)N[C@H]1CCNC(=O)[C@@H]([C@H](C)O)NC(=O)[C@H](CCN)NC(=O)[C@H](CCN)NC(=O)[C@H](CC(C)C)NC(=O)[C@@H](CC(C)C)NC(=O)[C@H](CCN)NC1=O)[C@@H](C)O (X1-[Dab]T[Dab][Dab][Dab][dL]L[Dab][Dab][dT]; lactam 4-C) | 121 mg/kg |
| Clc1ccc(Cn2c(CN3CCCC3)nc3ccccc32)cc1 | 1950 mg/kg |
| CN(C)C(=O)CCCOC(=O)C(C)(C)Oc1ccc(Cl)cc1 | 2480 mg/kg |
| Nc1c2c(nc3ccccc13)CCCC2 | 70 mg/kg |
| Cc1cccc(C)c1NC1=NCCCS1 | 130 mg/kg |
| CCC1(CC)Oc2cccc(OC(=O)NC)c2O1 | 46 mg/kg |
| CC(C)c1c(C(=O)c2cccnc2)c2ccccc2n1C | 2400 mg/kg |
| CN(C)c1cccc2nc3cccc([N+](=O)[O-])c3cc12 | 24 mg/kg |
| CC(C)C(=O)OCC(C)(C)C(O)C(C)C (stereo not given) | 3200 mg/kg |
| ClC(Cl)Cc1ccccc1 | 5500 mg/kg |
| C#CCc1cc(COC(=O)C2C(C=C(C)C)C2(C)C)c(C)o1 (stereo not given) | 14000 mg/kg |
| CC(CN1CCN(CCOCCO)CC1)CN1c2ccccc2Sc2ccccc21 (stereo not given) | 400 mg/kg |

| SMILES | LD50 |
| --- | --- |
| Cc1cccc(C)c1NC(=O)C1(N(C)C)CCN(C2CCCCC2O)CC1 (stereo not given) | 4.83 mg/kg |
| O=C(O)CCSCCC(=O)O | 3000 mg/kg |
| CC(C)(C)CON=CC1C(C(=O)OC(C#N)c2cccc(Oc3ccccc3)c2)C1(C)C (stereo not given) | 143 mg/kg |
| O=C(O)CC(O)c1ccc(-c2ccc(Cl)cc2)o1 (stereo not given) | 2460 mg/kg |
| CCOC(C1=NCC(C)(C)CN1)c1cccc(F)c1 (stereo not given) | 750 mg/kg |
| CCC(O)CO (stereo not given) | 16000 mg/kg |
| CC(C)(C)C(=O)C(Oc1ccc(Cl)cc1)n1ccnc1 (stereo not given) | 400 mg/kg |
| CC1(C)[C@H](C(=O)O[C@H](C#N)c2cccc(Oc3ccccc3)c2)[C@@H]1/C=C(\Cl)C(F)(F)F (single isomer, unassigned) | 56 mg/kg |
| CN(C)CCN(Cc1ccccc1)c1ccccc1 | 300 mg/kg |
| CC(Cc1ccccc1)NCCN1CON=C1c1ccccc1 (stereo not given) | 649 mg/kg |
| O=C(CN1CC1)NCCCCCCCCNC(=O)CN1CC1 | 225 mg/kg |
| c1ccc(C2CCCCC2)c(OCC2CNCCO2)c1 (stereo not given) | 1120 mg/kg |
| COS(=O)(=O)c1ccc(C)cc1 | 341 mg/kg |
| CN(C)C1CSSSC1 | 195 mg/kg |
| CCCCCOC(C[n+]1ccccc1)c1ccc(C2CCCCC2)cc1 (stereo not given) | 250 mg/kg |
| C=CCC | 4000 mg/kg |
| O=C1C=CC(=O)N1CCCCCCN1C(=O)C=CC1=O | 550 mg/kg |
| Cc1cc(Cl)ccc1N | 1060 mg/kg |
| CC(C)C(=O)N(C)C(=O)Oc1cccc(C(C)C)c1 | 631 mg/kg |
| COc1cccc([C@@]2(O)CCCC[C@H]2CN(C)C)c1 | 228 mg/kg |
| CSCCC(O)C(=O)O (stereo not given) | 3480 mg/kg |
| OCC1CCCCO1 (stereo not given) | 3730 mg/kg |
| Cc1c(Cl)c(Br)cc2[nH]c(C(F)(F)F)nc12 | 30 mg/kg |
| O=S1(=O)OCC2C(CO1)C1(Cl)C(Cl)=C(Cl)C2(Cl)C1(Cl)Cl (stereo not given) | 18 mg/kg |

| SMILES | LD50 |
| --- | --- |
| CNC(=O)O/N=C(\C)C(C)S(C)(=O)=O (stereo not given) | 458 mg/kg |
| C[C@]12CCC(=O)C=C1CC[C@@H]1[C@@H]2CC[C@@]2(C)[C@H]1CC[C@]2(C)O | 2500 mg/kg |
| O=S(=O)(Cl)c1ccc(Cl)cc1 | 4250 mg/kg |
| CCC(CC)COC(=O)CCCCC(=O)OCC(CC)CC | 5620 mg/kg |
| C=C(Cl)c1ccc([N+](=O)[O-])cc1 | 710 mg/kg |
| COc1cc(C(=O)N2CCN(C(=O)c3cc(OC)c(OC)c(OC)c3)CC2)cc(OC)c1OC | 1000 mg/kg |
| O=C(O)c1cc(I)cc(I)c1I | 2200 mg/kg and 813 mg/kg |
| Clc1ccc(C(OCCN2CCOCC2)c2ccccc2)cc1 (stereo not given) | 710 mg/kg |
| CN(C)C(=O)OC1=CC(=O)CC(C)(C)C1 | 120 mg/kg |
| COc1ccc(CC(=O)O)cc1 | 1550 mg/kg |
| C=CCc1ccc(OC)cc1 | 1230 mg/kg |
| CNC(=O)Oc1cc(C)c(NC(=O)O)c(C)c1 | 71 mg/kg |
| O[C@H](c1cc(-c2ccc(C(F)(F)F)cc2)nc(C(F)(F)F)c1)[C@H]1CCCCN1 | 518 mg/kg |
| CC1NCCOC1c1ccccc1 (stereo not given) | 370 mg/kg and 165 mg/kg |
| O=C1OCC2C1C1(Cl)C(Cl)=C(Cl)C2(Cl)C1(Cl)Cl (stereo not given) | 105 mg/kg |
| CC(C)(C)CC(C)(C)Nc1ncnc(N(CCCCCCNC2CC(C)(C)NC(C)(C)C2)C2CC(C)(C)NC(C)(C)C2)n1 | 9910 mg/kg |
| Cc1cccnc1N | 100 mg/kg |
| CC1(C)C(C(=O)OCc2coc(Cc3ccccc3)c2)C1(C)C | 141 mg/kg |
| NS(=O)(=O)c1cc(-c2nnn[nH]2)c(NCc2cccs2)cc1Cl | 2540 mg/kg |
| CC[N+](C)(CC)CCOC(=O)C(O)(c1ccccc1)C1CCCCC1 (stereo not given) | 995 mg/kg |
| CC(C)[N+](=O)[O-] | 720 mg/kg |
| Cc1cc(-c2ccccc2)n[nH]1 | 1800 mg/kg |
